From patent US10588317B2, “Isoxazoline-substituted benzamides and analogues as insecticides” (priority 2015, dated 2020)

What was measured:
Type in all cases: in vivo
[1] = test system: Diabrotica balteata; experiment: Diabrotica balteata (corn root worm), sprayed maize sprouts; conditions: 96 h, application rate 200 ppm, L2 larvae, 4 days after infestation, read-out: effect in at least one of the two categories (mortality or growth inhibition)
How it was run: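 Maize sprouts on agar sprayed with aqueous dilutions of DMSO stocks, dried, then infested with L2 larvae (6–10 per well). Mortality and growth inhibition scored against untreated controls 4 days after infestation, at 200 ppm application rate.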

[2] = test system: Euschistus heros; experiment: Euschistus heros (neotropical brown stink bug), sprayed soybean leaves; conditions: 120 h, application rate 200 ppm, N2 nymphs, 5 days after infestation, read-out: effect in at least one of the two categories (mortality or growth inhibition)
How it was run: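 Soybean leaves on agar sprayed with aqueous dilutions of DMSO stocks, dried, then infested with N2 nymphs. Mortality and growth inhibition scored against untreated samples 5 days after infestation; application rate 200 ppm.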

[3] = test system: Thrips tabaci; experiment: Thrips tabaci (onion thrips): feeding/contact activity; conditions: 144 h, application rate 200 ppm, Thrips population of mixed ages, 6 days after infestation, read-out: mortality
Experimental: Sunflower leaf discs were placed on agar in 24-well microtiter plates and sprayed with aqueous test solutions prepared from 10'000 ppm DMSO stock solutions. After drying the leaf discs were infested with a Thrips population of mixed ages. The samples were assessed for mortality 6 days after infestation.

[4] = test system: Plutella xylostella; experiment: Plutella xylostella (diamond back moth), artificial diet; conditions: 120 h, application rate 200 ppm, L2 larvae, 5 days after infestation, read-out: effect in at least one of the two categories (mortality or growth inhibition)
How it was run: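 Artificial diet in 24-well plates treated with aqueous test solutions made from 10'000 ppm DMSO stocks, dried, then infested with L2 larvae (10 to 15 per well). Mortality and growth inhibition scored against untreated samples 5 days after infestation; activity cut-off at least 80% in either category at 200 ppm.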

[5] = test system: Tetranychus urticae; experiment: Tetranychus urticae (two-spotted spider mite): feeding/contact activity; conditions: 192 h, application rate 200 ppm, mixed population (mobile stages), 8 days after infestation, read-out: mortality
Experimental: Bean leaf discs on agar in 24-well microtiter plates were sprayed with aqueous test solutions prepared from 10'000 ppm DMSO stock solutions. After drying the leaf discs were infested with a mite population of mixed ages. The samples were assessed for mortality on mixed population (mobile stages) 8 days after infestation.

[6] = test system: Myzus persicae; experiment: Myzus persicae (green peach aphid): feeding/contact activity; conditions: 144 h, application rate 200 ppm, aphid population of mixed ages, 6 days after infestation, read-out: mortality
Experimental: Sunflower leaf discs were placed onto agar in a 24-well microtiter plate and sprayed with aqueous test solutions prepared from 10'000 ppm DMSO stock solutions. After drying, the leaf discs were infested with an aphid population of mixed ages. The samples were assessed for mortality 6 days after infestation.

[7] = test system: Spodoptera littoralis; experiment: Spodoptera littoralis (Egyptian cotton leaf worm), sprayed cotton leaf discs; conditions: foliar, 72 h, application rate 200 ppm, L1 larvae, 3 days after infestation, read-out: control (mortality, anti-feeding effect, growth inhibition)
How it was run: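 Cotton leaf discs on agar sprayed with aqueous test solutions made from 10'000 ppm DMSO stock; after drying, infested with five L1 larvae. Mortality, anti-feeding and growth inhibition scored versus untreated samples 3 days after infestation; control counted when any category exceeds untreated.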

CC(=O)N(C)S(=O)(=O)N1CC(NC(=O)c2ccc(C3=NO[C@@](c4cc(Cl)c(F)c(Cl)c4)(C(F)(F)F)C3)cc2C)CO1 (some centres unmarked) [Compound A162]
≥ 80%: percent effect (mortality or growth inhibition) at 200 ppm [1] | percent effect (mortality or growth inhibition) at 200 ppm [2] | mortality at 200 ppm [3] | percent effect (mortality or growth inhibition) at 200 ppm [4] | mortality at 200 ppm [5] | mortality at 200 ppm [6] | mortality at 200 ppm [7]

Cc1cc(C2=NO[C@](c3cc(Cl)c(Cl)c(Cl)c3)(C(F)(F)F)C2)ccc1C(=O)N[C@H]1CON(S(=O)(=O)CF)C1 [Compound A216, N-[(4R)-2-(fluoromethylsulfonyl)-1,2-oxazolidin-4-yl]-2-methyl-4-[(5R)-5-(3,4,5-trichlorophenyl)-5-(trifluoromethyl)-4H-1,2-oxazol-3-yl]benzamide]
≥ 80%: percent effect (mortality or growth inhibition) at 200 ppm [1] | percent effect (mortality or growth inhibition) at 200 ppm [2] | mortality at 200 ppm [3] | percent effect (mortality or growth inhibition) at 200 ppm [4] | mortality at 200 ppm [5] | mortality at 200 ppm [6] | mortality at 200 ppm [7]

COC(=O)N(C)S(=O)(=O)N1CC(NC(=O)c2ccc(C3=NO[C@@](c4cc(Cl)c(F)c(Cl)c4)(C(F)(F)F)C3)cc2C)CO1 (stereo partly drawn) [Compound A77, methyl N-[4-[[4-[(5S)-5-(3,5-dichloro-4-fluoro-phenyl)-5-(trifluoromethyl)-4H-isoxazol-3-yl]-2-methyl-benzoyl]amino]isoxazolidin-2-yl]sulfonyl-N-methyl-carbamate]
≥ 80%: percent effect (mortality or growth inhibition) at 200 ppm [1] | percent effect (mortality or growth inhibition) at 200 ppm [2] | mortality at 200 ppm [3] | percent effect (mortality or growth inhibition) at 200 ppm [4] | mortality at 200 ppm [5] | mortality at 200 ppm [6] | mortality at 200 ppm [7]

Cc1cc(C2=NO[C@@](c3cc(Cl)c(OC(F)F)c(Cl)c3)(C(F)(F)F)C2)ccc1C(=O)N[C@@H]1CON(S(=O)(=O)N(C)C)C1 [Compound A205, 4-[(5S)-5-[3,5-dichloro-4-(difluoromethoxy)phenyl]-5-(trifluoromethyl)-4H-1,2-oxazol-3-yl]-N-[(4S)-2-(dimethylsulfamoyl)-1,2-oxazolidin-4-yl]-2-methylbenzamide]
≥ 80%: percent effect (mortality or growth inhibition) at 200 ppm [1] | percent effect (mortality or growth inhibition) at 200 ppm [2] | mortality at 200 ppm [3] | percent effect (mortality or growth inhibition) at 200 ppm [4] | mortality at 200 ppm [5] | mortality at 200 ppm [6] | mortality at 200 ppm [7]

Cc1cc(C2=NO[C@@](c3cc(Cl)c(Cl)c(Cl)c3)(C(F)(F)F)C2)ccc1C(=O)NC1CON(S(=O)(=O)N(C)C(C)C)C1 (stereo partly drawn) [Compound A103, N-[2-[isopropyl(methyl)sulfamoyl]isoxazolidin-4-yl]-2-methyl-4-[(5S)-5-(3,4,5-trichlorophenyl)-5-(trifluoromethyl)-4H-isoxazol-3-yl]benzamide]
≥ 80%: percent effect (mortality or growth inhibition) at 200 ppm [1] | percent effect (mortality or growth inhibition) at 200 ppm [2] | mortality at 200 ppm [3] | percent effect (mortality or growth inhibition) at 200 ppm [4] | mortality at 200 ppm [5] | mortality at 200 ppm [6] | mortality at 200 ppm [7]
